Reference: PMC12472494, “Anticonvulsant Potential of 1-Aryl-6,7-dimethoxy-1,2,3,4-tetrahydroisoquinolines: Insights from Strychnine and Nicotine Models in In Vivo and In Silico Studies” (Pharmaceuticals, 2025)
Values joined by “and” are separate entries in the source; they are usually repeats but may differ in a detail not shown here. Identical values can stand only once.

How the values were obtained:
[1] = system: strychnine-induced seizures; experiment: Strychnine-induced seizure model; type: in vivo, mice; conditions: for increase of the survival rate of the animals: reference drugs, versus control (100% died)
Text: (§1) The anticonvulsant effects of the examined substances were studied in male white mice weighing 18–22 g, divided into the following groups: control (including the strychnine and nicotine groups), carbamazepine group, Convulex group, and experimental groups (one for each tested substance). Simple randomization (“heads or tails” coin toss) was used to assign animals to groups. Each group contained 10 animals. Healthy animals were included in the experiments after a 14-day quarantine period. No animals were excluded from the study. Convulsant agents were administered subcutaneously at doses of 10.0 mg/kg for nicotine (Sigma–Aldrich, Saint Louis, MO, USA) and 1.5 mg/kg for strychnine (Sigma–Aldrich, Saint Louis, MO, USA), 60 min after the oral administration of the test substances at doses ranging from 0.1 to 10 mg/kg. The onset time, duration of tremors and seizures, and survival rate of the animals were recorded. Carbamazepine (Darnitsa, Kiev, Ukraine) at doses of 5.0–10.0 mg/kg and Convulex (valproate) (Gerot Pharmazeutika GmbH, Vienna, Austria) at doses of 75.0–100.0 mg/kg (based on the therapeutic anticonvulsant dose) were used as reference drugs.
(§2) Data were presented as mean ± SD for different groups. Statistical analysis was performed using OriginPro 9.0 (MicroCal Software, Northampton, MA, USA), with p < 0.05 considered statistically significant.

[2] = system: tremorogenic and convulsive actions of nicotine; experiment: Nicotine-induced tremor and seizure model; type: in vivo, mice; conditions: for responders at 1 mg/kg: po; for survival rate of the animals increased to: at low doses (0.1–5 mg/kg); for activity against tremorogenic and convulsive actions of nicotine versus reference drugs (in words): doses of 0.1–5 mg/kg; for survival rate: reference drugs
Text: as §1, §2

[3] = design: method as in PMID 36677539; conditions: per os; cited from earlier work
[4] = Mus musculus, oral dose 1.0 mg/kg 60 min before strychnine 1.5 mg/kg s.c., N = 10, read-out: Survival Rate
[5] = oral dose 1.0 mg/kg 60 min before strychnine 1.5 mg/kg s.c., mean ± SD, N = 10
[6] = Mus musculus, read-out: Survival Rate
[7] = oral dose 1.0 mg/kg 60 min before nicotine 10 mg/kg s.c., mean ± SD, N = 10
[8] = Mus musculus, sc, read-out: Survival Rate
[9] = dose 75.0 mg/kg, strychnine 1.5 mg/kg s.c.
[10] = dose 100.0 mg/kg, strychnine 1.5 mg/kg s.c.
[11] = doses of 75–100 mg/kg, versus control
[12] = dose 75.0 mg/kg, nicotine 10 mg/kg s.c.
[13] = dose 100.0 mg/kg, nicotine 10 mg/kg s.c.
[14] = dose 5.0 mg/kg, strychnine 1.5 mg/kg s.c.
[15] = dose 10.0 mg/kg, strychnine 1.5 mg/kg s.c.
[16] = doses of 5–10 mg/kg, versus control
[17] = dose 5.0 mg/kg, nicotine 10 mg/kg s.c.
[18] = dose 10.0 mg/kg, nicotine 10 mg/kg s.c.

## COc1cc2c(cc1OC)C(c1ccc(O)cc1)NCC2 (stereo not shown) [Compound 4, 1-(4′-Hydroxyphenyl)-6,7-dimethoxy-1,2,3,4-tetrahydroisoquinoline]
[1]; [4]
  responders at 1 mg/kg: 70%
[1]; [5]
  Duration of Tremor and Seizures: 0.57 ± 0.7 min
  Latency to Tremor and Seizure Onset: 14.2 ± 1.8 min
[2]; [6]
  responders at 1 mg/kg: 60%
[2]; [7]
  Duration of Seizures: 10.5 ± 0.8 min
  Latency to Seizure Onset: 1.8 ± 0.05 min
[3]
  LD50: 924.2 (893.9 ± 953.9) mg/kg

## COc1ccc(C2NCCc3cc(OC)c(OC)cc32)cc1OC (stereo not shown) [Compound 22, 1-(3′,4′-Dimethoxyphenyl)-6,7-dimethoxy-1,2,3,4-tetrahydroisoquinoline]
[1]; [4]
  responders at 1 mg/kg: 30%
[1]; dose not given
  survival rate of strychnine-poisoned animals: no more than 40%
[1]; [5]
  Duration of Tremor and Seizures: 0.71 ± 0.6 min
  Latency to Tremor and Seizure Onset: 12.7 ± 1.3 min
[2]; [6]
  responders at 1 mg/kg: 80%
[2]; [7]
  Latency to Seizure Onset: 2.2 ± 0.04 min
[3]
  LD50: 666.6 (557.9 ± 760.2) mg/kg

## COc1cc2c(cc1OC)C(c1ccc(Cl)cc1)NCC2 (stereo not shown) [Compound 12, 1-(4′-Chlorophenyl)-6,7-dimethoxy-1,2,3,4-tetrahydroisoquinoline]
[1]; [4]
  responders at 1 mg/kg: 20%
[1]; [5]
  Duration of Tremor and Seizures: 0.23 ± 0.6 min
  Latency to Tremor and Seizure Onset: 18.5 ± 1.8 min
[2]; [6]
  responders at 1 mg/kg: 70%
[2]; [7]
  Duration of Seizures: 7.0 ± 0.4 min
  Latency to Seizure Onset: 2.1 ± 0.09 min
[3]
  LD50: 730.4 (598.2 ± 883.7) mg/kg

## COc1ccc(C2NCCc3cc(OC)c(OC)cc32)cc1Br (stereo not shown) [Compound 19, 1-(3′-Bromo-4′-methoxyphenyl)-6,7-dimethoxy-1,2,3,4-tetrahydroisoquinoline]
[1]; [4]
  responders at 1 mg/kg: 40%
[1]; [5]
  Duration of Tremor and Seizures: 0.59 ± 0.9 min
  Latency to Tremor and Seizure Onset: 16.0 ± 1.4 min
[2]; [6]
  responders at 1 mg/kg: 80%
[2]; [7]
  Duration of Seizures: 19.0 ± 0.8 min
  Latency to Seizure Onset: 1.8 ± 0.07 min
[3]
  LD50: 327.9 (287.1 ± 363.8) mg/kg

## COc1cc2c(cc1OC)C(c1ccccc1)NCC2 (stereo not shown) [Compound 2, 1-Phenyl-6,7-dimethoxy-1,2,3,4-tetrahydroisoquinoline]
[1]; [4]
  responders at 1 mg/kg: 60%
[1]; [5]
  Duration of Tremor and Seizures: 0.43 ± 0.9 min
  Latency to Tremor and Seizure Onset: 14.1 ± 1.5 min
[2]; [6]
  responders at 1 mg/kg: 70%
[2]; [7]
  Duration of Seizures: 3.2 ± 0.6 min
  Latency to Seizure Onset: 3.2 ± 0.07 min
[3]
  LD50: 273.2 (249.7 ± 296.7) mg/kg

## COc1cc2c(cc1OC)C(c1cccc(N)c1)NCC2 (stereo not shown) [Compound 33, 1-(3′-Aminophenyl)-6,7-dimethoxy-1,2,3,4-tetrahydroisoquinoline]
[1]; [4]
  responders at 1 mg/kg: 50%
[1]; [5]
  Duration of Tremor and Seizures: 0.42 ± 0.8 min
  Latency to Tremor and Seizure Onset: 16.7 ± 1.0 min
[2]; [6]
  responders at 1 mg/kg: 80%
[2]; [7]
  Duration of Seizures: 17.0 ± 0.6 min
  Latency to Seizure Onset: 2.2 ± 0.04 min
[3]
  LD50: 732.0 (598.2 ± 885.4) mg/kg

## COc1cc2c(cc1OC)C(c1cc3c(cc1Br)OCO3)NCC2 (stereo not shown) [Compound 30, 1-(2′-Bromo-4′,5′-methylenedioxyphenyl)-6,7-dimethoxy-1,2,3,4-tetrahydroisoquinoline]
[1]; [4]
  responders at 1 mg/kg: 30%
[1]; [5]
  Duration of Tremor and Seizures: 0.41 ± 0.4 min
  Latency to Tremor and Seizure Onset: 11.2 ± 1.2 min
[2]; [6]
  responders at 1 mg/kg: 90%
[2]
  survival rate of the animals increased to: 90–100%
  activity against tremorogenic and convulsive actions of nicotine versus reference drugs (in words): comparable activity to the reference drugs
[2]; [7]
  Duration of Seizures: 7.0 ± 0.2 min
  Latency to Seizure Onset: 2.5 ± 0.09 min
[3]
  LD50: 711.7 (604.3 ± 792.9) mg/kg

## COc1cc2c(cc1OC)C(c1cccc([N+](=O)[O-])c1)NCC2 (stereo not shown) [Compound 8, 1-(3′-Nitrophenyl)-6,7-dimethoxy-1,2,3,4-tetrahydroisoquinoline]
[1]; [4]
  responders at 1 mg/kg: 40%
[1]; [5]
  Duration of Tremor and Seizures: 0.56 ± 0.4 min
  Latency to Tremor and Seizure Onset: 15.9 ± 1.7 min
[2]; [6]
  responders at 1 mg/kg: 90%
[2]
  survival rate of the animals increased to: 90–100%
  activity against tremorogenic and convulsive actions of nicotine versus reference drugs (in words): comparable activity to the reference drugs
[2]; [7]
  Duration of Seizures: 15.5 ± 0.3 min
  Latency to Seizure Onset: 2.3 ± 0.08 min
[3]
  LD50: 531.4 (501.3 ± 554.1) mg/kg

## COc1cc2c(cc1OC)C(c1ccc(N(C)C)cc1)NCC2 (stereo not shown) [Compound 16, 1-(4′-Dimethylaminophenyl)-6,7-dimethoxy-1,2,3,4-tetrahydroisoquinoline]
[1]; [4]
  responders at 1 mg/kg: 50%
[1]; [5]
  Duration of Tremor and Seizures: 0.31 ± 0.6 min
  Latency to Tremor and Seizure Onset: 13.1 ± 1.5 min
[2]; [6]
  responders at 1 mg/kg: 90%
[2]
  survival rate of the animals increased to: 90–100%
  activity against tremorogenic and convulsive actions of nicotine versus reference drugs (in words): comparable activity to the reference drugs
[2]; [7]
  Duration of Seizures: 8.5 ± 0.7 min
  Latency to Seizure Onset: 2.7 ± 0.08 min
[3]
  LD50: 498.3 (471.6 ± 524.6) mg/kg

## COc1cc2c(cc1OC)C(c1ccc(O)c(Br)c1)NCC2 (stereo not shown) [Compound 18, 1-(3′-Bromo-4′-hydroxyphenyl)-6,7-dimethoxy-1,2,3,4-tetrahydroisoquinoline]
[1]; [4]
  responders at 1 mg/kg: 50%
[1]; [5]
  Duration of Tremor and Seizures: 0.56 ± 0.6 min
  Latency to Tremor and Seizure Onset: 14.6 ± 1.5 min
[2]; [6]
  responders at 1 mg/kg: 70%
[2]; [7]
  Duration of Seizures: 8.9 ± 0.9 min
  Latency to Seizure Onset: 1.7 ± 0.04 min
[3]
  LD50: 3850 mg/kg and 3793.8 (3395.8 ± 4088.1) mg/kg

## COc1cc2c(cc1OC)C(c1ccc([N+](=O)[O-])cc1)NCC2 (stereo not shown) [Compound 9, 1-(4′-Nitrophenyl)-6,7-dimethoxy-1,2,3,4-tetrahydroisoquinoline]
[1]; [4]
  responders at 1 mg/kg: 40%
[1]; [5]
  Duration of Tremor and Seizures: 0.51 ± 0.5 min
  Latency to Tremor and Seizure Onset: 13.5 ± 1.9 min
[2]; [6]
  responders at 1 mg/kg: 90%
[2]; [7]
  Duration of Seizures: 16.7 ± 0.4 min
  Latency to Seizure Onset: 2.5 ± 0.03 min
[3]
  LD50: 1898.8 (703.5 ± 2273.4) mg/kg

## COc1cc2c(cc1OC)C(c1ccc(N)cc1)NCC2 (stereo not shown) [Compound 34, 1-(4′-Aminophenyl)-6,7-dimethoxy-1,2,3,4-tetrahydroisoquinoline]
[1]; [4]
  responders at 1 mg/kg: 40%
[1]; [5]
  Duration of Tremor and Seizures: 0.34 ± 0.7 min
  Latency to Tremor and Seizure Onset: 15.5 ± 1.8 min
[2]; [6]
  responders at 1 mg/kg: 90%
[2]
  survival rate of the animals increased to: 90–100%
  activity against tremorogenic and convulsive actions of nicotine versus reference drugs (in words): comparable activity to the reference drugs
[2]; [7]
  Duration of Seizures: 10.2 ± 0.7 min
  Latency to Seizure Onset: 2.2 ± 0.04 min
[3]
  LD50: 1043.2 (993.3 ± 1082.6) mg/kg

## CCCC(CCC)C(=O)O [Valproate (Convulex), Valproate, reference compound]
[1]; [8]
  responders at 75 mg/kg: 40%
  responders at 100 mg/kg: 20%
[1]; [9]
  Duration of Tremor and Seizures: 0.34 ± 0.6 min
  Latency to Tremor and Seizure Onset: 15.4 ± 1.5 min
[1]; [10]
  Duration of Tremor and Seizures: 0.32 ± 0.4 min
  Latency to Tremor and Seizure Onset: 14.3 ± 1.3 min
[1]; [11]
  increase of latency time: 46–57%
  reduction of the duration of seizures: 53%
[1]
  increase of the survival rate of the animals: 20–40%
[2]; Mus musculus, sc, dose 75.0 mg/kg, nicotine 10 mg/kg s.c., read-out: Survival Rate
  responders at 75 mg/kg: 90%
[2]; Mus musculus, sc, dose 100.0 mg/kg, nicotine 10 mg/kg s.c., read-out: Survival Rate
  responders at 100 mg/kg: 90%
[2]; [12]
  Duration of Seizures: 6.2 ± 0.4 min
  Latency to Seizure Onset: 1.2 ± 0.04 min
[2]; [13]
  Duration of Seizures: 10.8 ± 0.8 min
  Latency to Seizure Onset: 1.5 ± 0.06 min
[2]
  survival rate: 90%

## NC(=O)N1c2ccccc2C=Cc2ccccc21 [Carbamazepine, reference compound]
[1]; Mus musculus, sc, dose 5.0 mg/kg, strychnine 1.5 mg/kg s.c., read-out: Survival Rate
  responders at 5 mg/kg: 40%
[1]; Mus musculus, sc, dose 10.0 mg/kg, strychnine 1.5 mg/kg s.c., read-out: Survival Rate
  responders at 10 mg/kg: 50%
[1]; [14]
  Duration of Tremor and Seizures: 0.43 ± 0.5 min
  Latency to Tremor and Seizure Onset: 14.6 ± 1.4 min
[1]; [15]
  Duration of Tremor and Seizures: 0.38 ± 0.8 min
  Latency to Tremor and Seizure Onset: 12.6 ± 1.7 min
[1]; [16]
  increase of latency time for seizure onset: 29–49%
  reduction of the duration of seizures: 21–37%
[1]
  increase of the survival rate of the animals: 40–50%
[2]; [8]
  responders at 5 mg/kg: 60%
  responders at 10 mg/kg: 80%
[2]; [17]
  Duration of Seizures: 15.2 ± 0.9 min
  Latency to Seizure Onset: 1.57 ± 0.07 min
[2]; [18]
  Duration of Seizures: 4.7 ± 0.6 min
  Latency to Seizure Onset: 1.5 ± 0.02 min
[2]
  survival rate: 60–80%
